Assay results from paper PMC9845330 (Communications Biology, 2023).
Non-standard residues stand in square brackets, D forms with d. Residues, ends and D or L forms follow the SMILES beside them. *: point of attachment. X1 = O=C(CCCC[C@@H]1SC[C@@H]2NC(=O)N[C@@H]21)NCCCOCCOCCOCCCN*; PEG12 = NCCOCCOCCOCCOCCOCCOCCOCCOCCOCCOCCOCCOCCC(=O)O

Columns and labels:
[1] = system: H1299 xenograft tumor; test: Tumor homing by near infrared imaging; format: in vivo, mouse
Description: Animal experiments were approved by SRI International’s Institutional Animal Care and Use committee (Animal Welfare Assurance Number A3025-01, protocol 14008). H2009 cells (10^6) or H1299 cells (10^6) were implanted subcutaneously on the flank of female Nu/Nu mice (Jackson Laboratory, Bar Harbor, ME). When tumors reached 100 mm^3, in vivo experiments were initiated. For imaging, the indicated peptides were conjugated directly to Alexa Fluor 750 near-infrared dye (Supplemental Fig. 1). Four animals per group were used. Peptides were injected into the lateral tail vein for a total dose 15 µgs/mouse delivered in 100 µL. At set period of times, animals were anesthetized and imaged on an IVIS® (Perkin Elmer). Regions of interest were drawn around the tumor and the total radiant efficiency was measured. For therapeutic experiments, we chose to use the H2009 tumor model as it has a higher tumor take rate and more consistent growth rate than the H1299 model. Biotinylated MGS4_V8 (N = 9) or MGS4_V6 (N = 8) were conjugated to streptavidin-saporin and administered via tail-vein injection (7.5 µg/100 µl) 2x/week for 2.5 weeks for a total of 5 treatments. Nontreated animals (N = 8) served as the control. Tumor size was measured with calipers every other day and volume was calculated as (π/6)(l*w)^3/2. Statistical analysis was performed on GraphPad Prism®.
Supplemental Figure 1. […]
-Qdot605, streptavidin-R- phycoerythrin, and streptavidin-saporin. b) For NIR imaging experiments, Alexa Fluor 750 was directly conjugated to the peptide by the reaction of maleimide modified dye with a thiol containing MGS4_V8 peptide. c ) The structure of the monomeric MGS4 used for serum stabilities. […]
Supplemental Figure 5. MGS4_V8 homes to H12 99 xenograft tumor after systemic delivery.
H1299 tumor bearing nude mice ( N=4 ) were injected I.V. with MGS4_V8 or MGS4_V6 conjugated to NIR dye Alexa Fluor 750. At 24, 48, and 72 hours post injection, mice were anesthetized and imaged on an IVIS® (Perkin E lme r ) to measure total radiant efficiency in each tumor. MGS4_V8 accumulates in tumor ≈3-fold better than control peptide, MGS4_V6. MGS4_V6 accumulation is statistically no different than […]
untreated tumo rs. […]
A standard curve was generated using Quantum ™ Alexa Fluor 647 microspheres (Bangs Laboratory, Fishers, IN). A representative linear regression showing the correlation of molecule equivalents soluble fluorophores (MESF) vs the mean fluorescence intensity (MFI) is shown. The MFI is determined at 50% […]
Supplemental Figure 7. Example of flow cytometry data: MGS4_V10 Uptake on H1993 Cells .
The gating strategy, cell population data , and MFI determination for an example binding experiment is shown. Cells were gated by forward and side scatter to exclude nonviable cells or cell clusters as shown.
Individual dot plots and histograms are shown for a concentration range of 0.1 nM – 50 nM. The MFI is determined at 50% peak height. Molecules internalized per cell were determined by the standard curve relating MESF to MFI and divided by the number dye molecules/MGS conjugate.

[2] = system: H1299 cells; test: Cell binding and internalization by flow cytometry, relative (normalized) uptake of peptide-streptavidin-phycoerythrin; format: cell-based, human
Experimental: MGS4 was initially selected by phage display biopanning of a peptide library on live cells. […] As such, multivalent binding is often required. To ascertain whether multivalent binding is required for MGS4 internalization, monomeric (MGS4_V2) and tetrameric (MGS4_V1) peptides were synthesized and labeled as described (Supplementary Figure 1). After incubation of varying peptide concentrations on live cells, surface-bound peptide was removed by low pH washes, as well as trypsinization. Relative internalization was measured by flow cytometry to determine an EC50 value which represents the concentration of peptide producing half-maximal internalization. This measurement is dependent on the affinity of the peptide for its cellular target and the rate of internalization. This is a more accurate representation of the biological situation and useful in evaluating the peptides as drug delivery agents. As expected for receptor-mediated endocytosis, uptake of MGS4 is saturable with increasing concentration.
Fig. 1 Monomeric and tetrameric MGS4 have similar binding, internalization and subcellular location. a Binding and internalization of tetrameric MGS4_V1 and monomeric MGS4_V2 on live H1299 cells in culture. Cells were incubated with the peptide conjugated to streptavidin-phycoerythrin for 1 h at 37 °C. Non-internalized peptide was removed and the cells were analyzed by flow cytometry. b H1299 cells were incubated with MGS4_V1 or MGS4_V2 conjugated to streptavidin-Alexa Fluor 555 (red) for 1 h, washed, fixed and counterstained with WGA-Alexa Fluor 488 (green, cell membrane) and DAPI (blue, nuclei) and analyzed by fluorescence microscopy. The scale bar represents 20 µm. MGS4_V1 and MGS4_V2 internalize to a similar degree and localize to a similar destination. c Truncated monomeric MGS4 peptides have similar EC50 as the parental full-length peptide. Individual measurements are shown. The mean is shown as an “X” and black error bars represent standard error for a minimum of three experimental replicates (SEM). All original binding data and nonlinear regression analysis of the data are included in the supplementary materials.
Biotinylated peptide was conjugated to streptavidin-R-phycoerythrin or streptavidin-Alexa Fluor 647 (1:1 molar ratio) for 30 min. The open binding sites on streptavidin were quenched with RPMI 1640 and diluted to the indicated concentration. Tumor cells were grown to 90% confluency in a 12 well plate, then incubated with 500 µl peptide-dye conjugate at 37 °C. After 1 h, peptide was removed, and the cells were washed 3x with PBS (137 mM NaCl, 2.7 mM KCl, 10 mM Na2HPO4, 1.8 mM KH2PO4, pH 7.4), 2x with 0.1 M HCl-glycine pH2.2 in 0.9% NaCl, and 1x PBS rinse. Cells were removed by trypsinization. Flow cytometry was performed on a BD FACSCelesta, and data were analyzed on Flowing software. Cells were gated based on the forward and side scatter to include only viable cells and a minimum of 10,000 events were counted. A region containing <5% of the cells in the negative control was established, and relative peptide uptake by the mean fluorescence intensity of that population. For absolute peptide uptake per cell, a standard curve was generated using Quantum™ Alexa Fluor 647 microspheres (Bangs Laboratory, Fishers, IN). A representative linear regression showing the correlation of molecule equivalents soluble fluorophores (MESF) vs the mean fluorescence intensity (MFI) is shown in Supplemental Figure 6. Cells were gated based on the forward and side scatter to include only viable cells and a minimum of 10,000 events were counted. MFI was determined at 50% at peak height. Molecules internalized per cell were determined by the standard curve relating MESF to MFI and divided by the number dye molecules/MGS conjugate. An example is shown in supplemental Figure 7. GraphPad Prism® was used for non-linear regression curve fitting to calculate an EC50. […]

## CC(=O)N[C@@H](Cc1ccccc1)C(=O)N[C@@H](Cc1c[nH]cn1)C(=O)N[C@@H](C)C(=O)N[C@H](C(=O)N1CCC[C@H]1C(=O)N[C@@H](CCC(N)=O)C(=O)N[C@@H](CO)C(=O)N[C@@H](Cc1ccccc1)C(=O)N[C@@H](Cc1ccc(O)cc1)C(=O)N[C@H](C(=O)NCCOCCOCCOCCOCCOCCOCCOCCOCCOCCOCCOCCOCCC(=O)N[C@@H](CCC(=O)NCCCOCCOCCOCCCNC(=O)CCCC[C@@H]1SC[C@@H]2NC(=O)N[C@@H]21)C(N)=O)[C@@H](C)O)C(C)C [MGS4_V8] (Ac-FHAVPQSFYT[PEG12]E(X1)-NH2)
[1]; 24 h, Mouse 1
  Total Radiant Efficiency: 1.32e+009
[1]; 24 h, Mouse 2
  Total Radiant Efficiency: 1.83e+009
[1]; 24 h, Mouse 3
  Total Radiant Efficiency: 9.57e+008
[1]; 24 h, Mouse 4
  Total Radiant Efficiency: 2.96e+009
[1]; 48 h, Mouse 1
  Total Radiant Efficiency: 9.13e+008
[1]; 48 h, Mouse 2
  Total Radiant Efficiency: 9.76e+008
[1]; 48 h, Mouse 3
  Total Radiant Efficiency: 7.72e+008
[1]; 48 h, Mouse 4
  Total Radiant Efficiency: 1.71e+009
[1]; 72 h, Mouse 1
  Total Radiant Efficiency: 9.42e+008
[1]; 72 h, Mouse 2
  Total Radiant Efficiency: 7.37e+008
[1]; 72 h, Mouse 3
  Total Radiant Efficiency: 1.06e+009
[1]; 72 h, Mouse 4
  Total Radiant Efficiency: 1.35e+009
[1]; H1299 tumors, 24-72 h, Alexa Fluor 750 conjugate, N=4
  fold tumor accumulation versus control peptide MGS4_V6: ≈ 3 fold
[2]; Supplementary Table 2, normalized binding
  Bmax (best-fit): 1.423

## *HAVPQSFYT** [MGS4_V6]
[1]; 24 h, Mouse 1
  Total Radiant Efficiency: 7.74e+008
[1]; 24 h, Mouse 2
  Total Radiant Efficiency: 4.6e+008
[1]; 24 h, Mouse 3
  Total Radiant Efficiency: 7.58e+008
[1]; 24 h, Mouse 4
  Total Radiant Efficiency: 3.13e+008
[1]; 48 h, Mouse 1
  Total Radiant Efficiency: 5.44e+008
[1]; 48 h, Mouse 2
  Total Radiant Efficiency: 3.19e+008
[1]; 48 h, Mouse 3
  Total Radiant Efficiency: 3.39e+008
[1]; 48 h, Mouse 4
  Total Radiant Efficiency: 3.19e+008
[1]; 72 h, Mouse 1
  Total Radiant Efficiency: 5.46e+008
[1]; 72 h, Mouse 2
  Total Radiant Efficiency: 3.28e+008
[1]; 72 h, Mouse 3
  Total Radiant Efficiency: 3.61e+008
[1]; 72 h, Mouse 4
  Total Radiant Efficiency: 4.28e+008
[2]; H1299 cells, 1 h at 37 °C, normalized uptake, one-site specific binding fit, Average ± SEM, minimum 3 replicates
  EC50 (nM): Not Detected^2
